Holding throughout (conditions): sugar 1 mg/ml
The target in one experiment is T1, TLR4.Fc (Homo sapiens, UniProt O00206).
T1 construct: The extracellular domains of several innate immunity receptors from immune cells were cloned by reverse-transcription polymerase chain reaction (RT-PCR); made in house; host or cells: 293-F (FreeStyle 293) cells
Put plainly: Sugar competition EIA, TLR4.Fc binding to GLPS-F3. The method, then:
(§1) The interaction between GLPS-F3 and receptor.Fc was then tested. Unbiotinylated GLPS-F3 was immobilized at 100 ng/well as described above, and 100 μL receptor.Fc fusion protein (1 μg/ml in 2 mM MgCl2/2 mM CaCl2/1% BSA/TBST) was added into each well and incubated for 1 hour at room temperature. After washing with TBST, wells were incubated with peroxidase-conjugated goat anti-human IgG Ab (1:5000 dilution, Jackson ImmunoResearch Laboratories) in blocking buffer at room temperature for 30 min. Wells were incubated with 100 μL TMB substrate for 15 min after TBST washing and read at 450 nm in a Fusion plate reader (Perkin Elmer). The results were normalized with respect to Fc.Dectin-1 binding (Dectin-1 is a known lectin receptor that binds to β-1,3-glucan which is the backbone found in GLPS-F3). FIG. 6B depicts in graphical form the affinity of each receptor for GLPS-F3 relative to Dectin-1. […] There was also weaker but positive GLPS-F3 binding ability (25-50% binding intensity compared to Fc.dectin-1) found in Fc.NKG2D, Fc.MINCLE, Fc.mKCR, DCAL1.Fc, DEC205.Fc, Endo180.Fc and NKp30(NCR3).Fc.
(§2) To understand the interaction of GLPS-F3 with specific innate immunity receptors, the polysaccharides mannan and β-glucan and the monosaccharides D-mannose (Man), D-glucose (Glc), N-acetyl-glucosamine (GlcNAc), D-galactose (Gal), N-acetyl-galactosamine (GalNAc), L-fucose (Fuc) and sialic acid, were used in a competition assay. […] The assays were carried out as in Example 9, with the addition of 1 mg/ml of each polysaccharide or monosaccharide.

The target of a further experiment is T2, CLEC-6 (Homo sapiens, UniProt Q8WXI8).
T2 construct: The extracellular domains of lectin receptors, TREMs and TLTs were cloned by the reverse-transcriptase polymerase chain reaction (RT-PCR); made in house; host or cells: 293-F (FreeStyle 293) cells
T2 sequence (Q8WXI8 39-215 limits assumed): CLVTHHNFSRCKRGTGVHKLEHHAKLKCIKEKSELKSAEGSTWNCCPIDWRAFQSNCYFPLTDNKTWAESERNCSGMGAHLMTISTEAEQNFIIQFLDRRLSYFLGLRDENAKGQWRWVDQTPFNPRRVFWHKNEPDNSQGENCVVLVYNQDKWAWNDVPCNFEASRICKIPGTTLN
Description: Sugar competition EIA, Fc.CLEC-6 binding to GLPS-F3. As for the experimental part:
as §1, §2

The target in a further experiment is T3, Dectin-1 (Homo sapiens, UniProt Q9BXN2).
T3 construct: The extracellular domains of lectin receptors, TREMs and TLTs were cloned by the reverse-transcriptase polymerase chain reaction (RT-PCR); made in house; host or cells: 293-F (FreeStyle 293) cells
T3 sequence (Q9BXN2 66-247 limits assumed): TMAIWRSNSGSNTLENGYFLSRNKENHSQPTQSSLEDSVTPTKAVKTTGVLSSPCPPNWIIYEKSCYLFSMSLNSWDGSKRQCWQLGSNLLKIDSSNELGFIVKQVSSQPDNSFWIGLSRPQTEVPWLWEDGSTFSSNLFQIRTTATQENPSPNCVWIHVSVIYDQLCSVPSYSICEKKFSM
Description: Sugar competition EIA, Fc.Dectin-1 binding to GLPS-F3. The method, then:
as §1, §2

In a further experiment the target is T4, DC-SIGN (Homo sapiens, UniProt Q9NNX6).
T4 construct: The extracellular domains of lectin receptors, TREMs and TLTs were cloned by the reverse-transcriptase polymerase chain reaction (RT-PCR); made in house; host or cells: 293-F (FreeStyle 293) cells
T4 sequence (Q9NNX6 59-404 limits assumed): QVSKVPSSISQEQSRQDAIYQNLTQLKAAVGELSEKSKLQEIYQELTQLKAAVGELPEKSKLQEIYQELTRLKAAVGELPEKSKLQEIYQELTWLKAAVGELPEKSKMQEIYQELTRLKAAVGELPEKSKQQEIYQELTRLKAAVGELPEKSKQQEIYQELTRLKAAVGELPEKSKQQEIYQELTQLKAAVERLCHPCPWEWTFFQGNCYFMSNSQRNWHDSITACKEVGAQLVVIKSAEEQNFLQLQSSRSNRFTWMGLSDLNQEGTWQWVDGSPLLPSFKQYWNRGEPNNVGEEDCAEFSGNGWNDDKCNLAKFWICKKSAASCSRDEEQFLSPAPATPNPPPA
Put plainly: Sugar competition EIA, Fc.DC-SIGN binding to GLPS-F3. As for the experimental part:
as §1, §2

For the next experiment, the target named is T5, CLEC-2 (Homo sapiens, UniProt Q9P126).
T5 construct: The extracellular domains of lectin receptors, TREMs and TLTs were cloned by the reverse-transcriptase polymerase chain reaction (RT-PCR); made in house; host or cells: 293-F (FreeStyle 293) cells
T5 sequence (Q9P126 55-229 limits assumed): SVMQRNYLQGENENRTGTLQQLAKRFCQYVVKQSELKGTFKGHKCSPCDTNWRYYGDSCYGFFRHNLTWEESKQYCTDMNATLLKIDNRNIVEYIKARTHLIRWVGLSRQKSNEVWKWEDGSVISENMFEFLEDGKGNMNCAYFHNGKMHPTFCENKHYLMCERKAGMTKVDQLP
Put plainly: Sugar competition EIA, Fc.CLEC-2 binding to GLPS-F3. The method, then: as §1, §2

T1 sequence (O00206 24-631 limits assumed): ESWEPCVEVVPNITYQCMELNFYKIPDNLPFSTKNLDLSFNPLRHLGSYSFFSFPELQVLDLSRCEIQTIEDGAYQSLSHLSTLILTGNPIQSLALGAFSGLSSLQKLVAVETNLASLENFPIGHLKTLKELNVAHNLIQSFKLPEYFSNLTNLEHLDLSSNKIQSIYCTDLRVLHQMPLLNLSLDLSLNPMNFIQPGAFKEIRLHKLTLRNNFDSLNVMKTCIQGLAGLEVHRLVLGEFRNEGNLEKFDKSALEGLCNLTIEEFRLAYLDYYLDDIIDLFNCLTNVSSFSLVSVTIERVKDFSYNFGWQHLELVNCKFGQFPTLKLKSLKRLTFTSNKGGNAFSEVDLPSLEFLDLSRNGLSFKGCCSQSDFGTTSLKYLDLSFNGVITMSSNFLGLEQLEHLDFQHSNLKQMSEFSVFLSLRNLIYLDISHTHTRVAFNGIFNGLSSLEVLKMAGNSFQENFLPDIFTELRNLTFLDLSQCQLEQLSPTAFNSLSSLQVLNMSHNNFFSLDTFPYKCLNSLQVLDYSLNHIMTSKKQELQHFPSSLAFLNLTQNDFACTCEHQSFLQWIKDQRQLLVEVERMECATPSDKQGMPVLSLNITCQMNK

For `C[C@H](O)[C@@H](O)[C@@H](O)[C@H](O)C=O` [Fuc, L-fucose], at TLR4.Fc, the “Percentage of binding of TLR4.Fc to GLPS-F3 relative to binding in absence of sugar competitor” value was 56 ± 1.9%; the “inhibition of TLR4.Fc and GLPS-F3 interaction” value turned out to be 44%. The “Percentage of binding of CLEC-6 Fc fusion to GLPS-F3 relative to binding in absence of sugar competitor” value at CLEC-6 is 82 ± 6.5%. Also, the “Percentage of binding of Dectin-1 Fc fusion to GLPS-F3 relative to binding in absence of sugar competitor” value on Dectin-1 was determined as 92 ± 5.2%. For the same compound, at DC-SIGN, the “Percentage of binding of DC-SIGN Fc fusion to GLPS-F3 relative to binding in absence of sugar competitor” value is recorded as 8 ± 1.8% and the “inhibition of binding of Fc.DC-SIGN to GLPS-F3” value is reported as 92%. Further, at CLEC-2, the “Percentage of binding of CLEC-2 Fc fusion to GLPS-F3 relative to binding in absence of sugar competitor” value is given as 91 ± 8.5%.

For the compound mannan, at TLR4.Fc, the “Percentage of binding of TLR4.Fc to GLPS-F3 relative to binding in absence of sugar competitor” value is recorded as 28 ± 6.3%; the “inhibition of TLR4.Fc and GLPS-F3 interaction” value is 72%. Besides, the “Percentage of binding of CLEC-6 Fc fusion to GLPS-F3 relative to binding in absence of sugar competitor” value on CLEC-6 is 75 ± 0.8%. The “Percentage of binding of Dectin-1 Fc fusion to GLPS-F3 relative to binding in absence of sugar competitor” value on Dectin-1 was 82 ± 0.2%. At DC-SIGN, the “Percentage of binding of DC-SIGN Fc fusion to GLPS-F3 relative to binding in absence of sugar competitor” value was determined as 2 ± 0.5% and the “inhibition of binding of Fc.DC-SIGN to GLPS-F3” value is on record as 98%. Also, at CLEC-2, the “Percentage of binding of CLEC-2 Fc fusion to GLPS-F3 relative to binding in absence of sugar competitor” value was found to be 88 ± 6.3%.

On to β-1,3-glucan [b-glucan], for which, on TLR4.Fc, the “Percentage of binding of TLR4.Fc to GLPS-F3 relative to binding in absence of sugar competitor” value was determined as 96 ± 4.0%. Also, on CLEC-6, the “Percentage of binding of CLEC-6 Fc fusion to GLPS-F3 relative to binding in absence of sugar competitor” value is reported as 98 ± 7.3%. Moreover, on Dectin-1, the “Percentage of binding of Dectin-1 Fc fusion to GLPS-F3 relative to binding in absence of sugar competitor” value is 42 ± 0.3%; the “inhibition of interaction between GLPS-F3 and Fc.Dectin-1” value is reported as 58%. Besides, on DC-SIGN, the “Percentage of binding of DC-SIGN Fc fusion to GLPS-F3 relative to binding in absence of sugar competitor” value came out at 81 ± 1.4%. For the same compound, on CLEC-2, the “Percentage of binding of CLEC-2 Fc fusion to GLPS-F3 relative to binding in absence of sugar competitor” value turned out to be 95 ± 5.1%.

Source of the values: patent publication US8460669B2, “Compositions and methods for identifying response targets and treating flavivirus infection responses” (Academia Sinica, priority 2005, dated 2013).
